Test [1] deals with T1, AfUGM (Aspergillus fumigatus, UniProt Q4W1X2).
T1 construct: made in house
Kind of test: FP binding assay to determine chromophore binding affinities (AfUGM). Particulars: for Kd: UDP-fluorescent probes, 15 nM chromophore, serially diluted AfUGM, 0.05 M sodium phosphate pH 7.0, fluorescence anisotropy, read-out: K d for AfUGM; for Binding to AfUGM relative to the UDP-fluorescein analogs (times better): ratio of Kd values. Here is the method:
Solutions containing various concentrations of chromophore in 0.05 M sodium phosphate buffer (pH 7.0) were added to 12 wells in a 96-well half area black bottom plate (Corning) with final volumes of 25 μL. FP was analyzed by a SpectraMax M5 plate reader (Molecular Devices). The parallel fluorescence emission (F=) and perpendicular fluorescence emission (F⊥) at 524 nm (for compounds 1 and 2, excitation at 492 nm) or at 584 nm (for compounds 3 and 4, excitation at 544 nm) were measured by a SpectraMax M5 plate reader (Molecular Devices), and the anisotropy (r) was calculated using (1), the minimal concentration at which stable FP signals with minimal standard deviations were chosen as the optimal concentration for the chromophore.
(1) r=F=−G·F⊥/F=+2G·F⊥ (2) y=m1+(m2−m1) ×(x+Ct+m3)−(x+Ct+m3)^2−4xCt/2Ct
Solutions containing serially diluted AfUGM and 15 nM of chromophore in 0.05 M sodium phosphate buffer (pH 7.0) were incubated at room temperature for 5 minutes. Each experiment was done in triplicate in a 96-well black bottom plate at final volumes of 25 μL. Fluorescence anisotropy was measured as indicated above, and the K d values were obtained by fitting the anisotropy data to (2), where m 1 and m 2 are the minimum and maximum anisotropy values, respectively; m 3 is the K d value, and the total concentration of UDP-chromophore is represented by C t.
For orientation: In fluorescence polarisation assays a small probe gives low polarisation when free and higher when bound to something large.

In test [2] the target is T2, MtUGM (Mycobacterium tuberculosis, UniProt P9WIQ1).
T2 construct: made in house
T2 sequence (P9WIQ1 whole entry): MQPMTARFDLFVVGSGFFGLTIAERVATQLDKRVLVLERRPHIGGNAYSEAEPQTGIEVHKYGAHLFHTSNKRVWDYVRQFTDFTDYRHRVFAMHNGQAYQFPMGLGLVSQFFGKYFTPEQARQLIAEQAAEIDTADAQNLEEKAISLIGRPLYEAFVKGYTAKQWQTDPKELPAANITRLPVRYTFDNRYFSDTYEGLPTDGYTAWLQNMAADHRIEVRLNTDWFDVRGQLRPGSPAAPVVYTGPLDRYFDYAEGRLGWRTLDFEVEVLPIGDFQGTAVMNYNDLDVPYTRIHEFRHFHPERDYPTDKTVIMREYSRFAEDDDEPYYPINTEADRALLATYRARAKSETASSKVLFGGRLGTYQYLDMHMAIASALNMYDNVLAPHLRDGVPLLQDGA
Kind of test: FP binding assay to determine chromophore binding affinities (MtUGM). Particulars: UDP-fluorescent probes, fluorescence anisotropy; read-out: K d for MtUGM.

The target of test [3] is T1, AfUGM. The experiment in a line: Competitive binding experiments using FP inhibition assay (AfUGM, chromophore 3 as probe). As for the experimental part: (§1) Each solution was done in triplicate. Anisotropy values were measured and the IC50 values obtained by fitting the data to (4), where m 1 and m 2 are the minimum and maximum anisotropy, respectively; m 3 is the slope, and m4 is the IC50.

The target in test [4] is T2, MtUGM. The experiment in a line: Competitive binding FP inhibition assay (MtUGM). Here is the method:
as §1

The target of test [5] is T1, AfUGM. The experiment in a line: AfUGM activity assay (formation of UDP-Galp from UDP-Galf by HPLC). It is filed as biochemical. As to conditions: 0.5 mM UDP-Galf, 50 nM AfUGM, 37°C, 10 min. Here is the method: A 20 μL reaction containing 20 mM dithiothreitol, 0.5 mM UDP-Galf in 25 mM HEPES, 125 mM NaCl buffer, pH 7.5 in the absence of 7 or 8 was initiated by the addition of AfUGM at a final concentration of 50 nM. After incubation at 37°C for 10 min, the reaction was quenched by heat denaturation (95°C for 5 min) in a DNA engine thermocycler (BioRad, Hercules, Calif, USA). The same reaction was also performed in the presence of 7 (500 μM) or 8 (50 μM). The suspension was centrifuged and the supernatant was injected onto a CarboPac PA100 (Dionex) anion-exchange column. The sample was eluted isocratically with 75 mM KH2PO4 (pH 4.5), and the absorbance at 262 nm was monitored to identify fractions of substrate and product.

Test [6] deals with T1, AfUGM. As to conditions: previously determined; read-out: K d for AfUGM by directly monitoring the flavin fluorescence; cited from earlier work.

This is an account of results in publication PMC3159312 (Enzyme Research, 2011).

Structures are written as SMILES. Read-outs that look alike come from different tables or passages of the source.

T1 sequence (Q4W1X2 whole entry): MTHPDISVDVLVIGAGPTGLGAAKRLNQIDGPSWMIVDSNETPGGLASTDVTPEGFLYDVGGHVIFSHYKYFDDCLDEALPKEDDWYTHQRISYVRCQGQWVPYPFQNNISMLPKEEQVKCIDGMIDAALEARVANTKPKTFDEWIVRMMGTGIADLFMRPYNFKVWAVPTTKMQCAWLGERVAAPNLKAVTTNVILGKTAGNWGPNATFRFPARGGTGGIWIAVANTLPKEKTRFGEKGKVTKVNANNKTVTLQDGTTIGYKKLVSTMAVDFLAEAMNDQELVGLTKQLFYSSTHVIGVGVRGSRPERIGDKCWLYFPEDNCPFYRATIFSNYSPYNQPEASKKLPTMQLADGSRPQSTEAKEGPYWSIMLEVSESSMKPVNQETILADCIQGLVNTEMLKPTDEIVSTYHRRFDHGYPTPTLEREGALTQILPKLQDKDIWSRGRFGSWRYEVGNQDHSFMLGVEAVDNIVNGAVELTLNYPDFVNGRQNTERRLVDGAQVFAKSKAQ

With `CN(C)c1ccc2c(-c3ccc(C(=O)NCCCCCCOP(=O)(O)OP(=O)(O)OCC4OC(n5ccc(=O)[nH]c5=O)C(O)C4O)cc3C(=O)[O-])c3ccc(=[N+](C)C)cc-3oc2c1` (stereo not drawn) [Chromophore 3], the Kd at AfUGM [1] turned out to be 2600 ± 200 nM; at MtUGM [2], 730 ± 70 nM. Further, the “Binding to AfUGM relative to the UDP-fluorescein analogs (times better)” value on AfUGM [1] is on record as ~ 6 times.

On to `O=C(Nc1ccccc1C(=O)O)c1ccc2c(c1)C(=O)N(c1ccc(Br)cc1)C2=O` [compound 7], for which the Kd on AfUGM [3] worked out at 140 ± 9 µM; on MtUGM [4], 21 ± 1 µM. For the same compound, the “Inhibition of AfUGM activity (conversion of UDP-Galf to UDP-Galp, HPLC)” value at AfUGM [5] (inhibitor 500 μM) was “inhibit the activity of AfUGM”.

On to `O=C1N/C(=N/S(=O)(=O)c2ccccc2)S/C1=C1/C(=O)Nc2ccc([N+](=O)[O-])cc21` [compound 8], for which the figures for the Kd at AfUGM [3] and on MtUGM [4] were 11 ± 0.4 µM and 25 ± 2 µM, respectively. Further, the “Inhibition of AfUGM activity (conversion of UDP-Galf to UDP-Galp, HPLC)” value at AfUGM [5] (inhibitor 50 μM) was “inhibit the activity of AfUGM”.

As to `CN(C)c1ccc2c(-c3ccc(C(=O)NCCOP(=O)(O)OP(=O)(O)OCC4OC(n5ccc(=O)[nH]c5=O)C(O)C4O)cc3C(=O)[O-])c3ccc(=[N+](C)C)cc-3oc2c1` (stereo not drawn) [Chromophore 4], the results for the Kd on AfUGM [1] and on MtUGM [2] were 3000 ± 700 nM and > 30000 nM, respectively. In addition, the “Binding to AfUGM relative to the UDP-fluorescein analogs (times better)” value on AfUGM [1] is ~ 6 times.

With `O=c1ccn([C@@H]2O[C@H](COP(=O)(O)OP(=O)(O)O)[C@@H](O)[C@H]2O)c(=O)[nH]1` [UDP], the Kd is 9 ± 1.7 µM at AfUGM [3] (read-out: K d for AfUGM); 15 ± 2 µM at MtUGM [4] (UGM ligands, FP competition, read-out: K d for MtUGM); 33 ± 9 µM at AfUGM [6].
